{"source": "patent US7994258B2", "about": "“Hyperbranched polymer having nitroxyl group” (Nissan Chemical Industries, Ltd., priority 2007, dated 2011)", "origin": "cited, not measured here", "settings": "comparison value, measuring conditions not stated", "data": [{"smiles": "O=C([O-])CN(CCN(CC(=O)[O-])CC(=O)O)CCN(CC(=O)[O-])CC(=O)O.[Gd+3]", "note": "[GdDTPA]", "values": [{"measurement": "relaxivity (r1) of comparator", "value": 4.0, "unit": "mM⁻¹ s⁻¹"}]}]}
